System: Mus musculus
Test: Inhibition of LPS-induced pulmonary neutrophilia in BALB/c mouse assessed as reduction of neutrophils level in bronchoalveolar lavage fluid at 1 mg/kg administered intratracheally 30 mins before LPS challenge measured after 4 to 5 hrs
Format: functional
Conditions: route endotracheal

| SMILES | inhibition in vivo at 1 mg/kg [%] |
| --- | --- |
| CC(C)CNC(=O)Cc1ccc(Nc2nc(-c3ccccc3)nc3c2C(=O)NCC3)cc1 | 41 |
| O=C(Nc1c(Cl)cncc1Cl)c1ccc(OC(F)F)c(OCC2CC2)c1 [ROFLUMILAST] | 47 |

System: not listed separately
Test: Cmax in mouse at 10 mg/kg, ip
Format: ADME, organism-based
Parameters: dose 10 mg/kg, route intraperitoneal
Conditions: in vivo

| Cmax [ng/mL] | SMILES |
| --- | --- |
| 1490 | CC(C)(C)CNC(=O)Cc1ccc(Nc2nc(-c3ccccc3)ncc2C(N)=O)cc1 |

System: not listed separately
Test: Terminal half life in mouse at 10 mg/kg, ip
Format: ADME, organism-based
Parameters: dose 10 mg/kg, route intraperitoneal
Conditions: in vivo, read-out: beta t1/2 (converted)

| half-life [h] | SMILES |
| --- | --- |
| 3.2 | CC(C)(C)CNC(=O)Cc1ccc(Nc2nc(-c3ccccc3)ncc2C(N)=O)cc1 |

System: not listed separately
Test: AUC in mouse at 10 mg/kg, ip
Format: ADME, organism-based
Parameters: dose 10 mg/kg, route intraperitoneal
Conditions: plasma

| AUC [ng·h/mL] | SMILES |
| --- | --- |
| 3990 | CC(C)(C)CNC(=O)Cc1ccc(Nc2nc(-c3ccccc3)ncc2C(N)=O)cc1 |

System: Mus musculus
Test: Inhibition of LPS-induced pulmonary neutrophilia in ip dosed BALB/c mouse assessed as reduction of neutrophils level in bronchoalveolar lavage fluid administered 30 mins before LPS challenge measured after 4 to 5 hrs
Format: functional
Conditions: read-out: ID50 (the source's name)

| SMILES | ED50 [mg/kg] |
| --- | --- |
| CC(C)(C)CNC(=O)Cc1ccc(Nc2nc(-c3ccccc3)ncc2C(N)=O)cc1 | 16 |

System: not listed separately
Test: Metabolic stability of the compound in mouse liver microsomes after 30 mins
Format: ADME, Microsome
Conditions: read-out: Stability

| remaining at 0.5 h [%] | SMILES |
| --- | --- |
| 52 | CC(C)(C)CNC(=O)Cc1ccc(Nc2nc(-c3ccccc3)ncc2C(N)=O)cc1 |

System: not listed separately
Test: Octanol-phosphate buffered saline distribution coefficient, log D of the compound at pH 7.4
Format: physicochemical
Conditions: not given

| logD | SMILES |
| --- | --- |
| 4.9 | CC(C)(C)CNC(=O)Cc1ccc(Nc2nc(-c3ccccc3)ncc2C(N)=O)cc1 |

Target: T1, 3',5'-cyclic-AMP phosphodiesterase 4B (Homo sapiens, UniProt Q07343)
T1 sequence (Q07343 whole entry): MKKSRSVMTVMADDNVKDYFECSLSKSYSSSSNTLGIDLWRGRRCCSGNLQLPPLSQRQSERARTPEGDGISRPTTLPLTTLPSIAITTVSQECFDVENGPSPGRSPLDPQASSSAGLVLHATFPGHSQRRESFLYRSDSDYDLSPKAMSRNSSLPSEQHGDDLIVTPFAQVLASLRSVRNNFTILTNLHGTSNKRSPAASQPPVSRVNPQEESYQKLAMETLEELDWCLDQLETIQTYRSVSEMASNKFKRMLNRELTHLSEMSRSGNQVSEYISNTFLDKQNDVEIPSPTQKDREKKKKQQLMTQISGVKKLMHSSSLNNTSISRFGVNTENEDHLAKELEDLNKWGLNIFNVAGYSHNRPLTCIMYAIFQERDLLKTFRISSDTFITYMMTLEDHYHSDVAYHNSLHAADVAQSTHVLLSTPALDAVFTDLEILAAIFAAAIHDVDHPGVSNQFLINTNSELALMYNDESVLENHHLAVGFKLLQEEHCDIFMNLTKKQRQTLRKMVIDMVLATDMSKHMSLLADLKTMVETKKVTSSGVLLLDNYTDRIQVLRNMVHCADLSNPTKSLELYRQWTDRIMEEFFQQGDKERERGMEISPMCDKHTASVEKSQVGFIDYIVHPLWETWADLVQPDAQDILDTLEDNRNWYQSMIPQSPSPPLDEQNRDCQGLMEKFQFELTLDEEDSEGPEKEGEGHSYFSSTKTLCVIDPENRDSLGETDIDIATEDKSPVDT
Test: Inhibition of recombinant human PDE4B using cAMP as substrate at 1 uM after 30 mins
Conditions: not given

| inhibition [%] | SMILES |
| --- | --- |
| 18 | CC(C)(C)CNC(=O)Cc1ccc(Nc2nc(-c3ccsc3)ncc2C(N)=O)cc1 |

Target: T1, 3',5'-cyclic-AMP phosphodiesterase 4B
Test: Inhibition of recombinant human PDE4B using cAMP as substrate at 3 uM after 30 mins
Conditions: not given

| inhibition [%] | SMILES |
| --- | --- |
| 42 | O=C(O)Cc1ccc(Nc2nc(-c3ccccc3)ncc2C(=O)NO)cc1 |

Target: T1, 3',5'-cyclic-AMP phosphodiesterase 4B
Test: Inhibition of recombinant human PDE4B using cAMP as substrate at 10 uM after 30 mins
Conditions: not given

| inhibition [%] | SMILES |
| --- | --- |
| 8 | CN(C)C(=O)c1cnc(-c2ccccc2)nc1Nc1ccc(CC(=O)O)cc1 |

System: Splenocyte
Test: Inhibition of LPS-induced TNFalpha production in Balb/c mouse splenocytes after 18 to 24 hrs by AlphaLISA assay
Format: functional, cell-based
Conditions: not given

| SMILES | IC50 [nM] |
| --- | --- |
| NC(=O)c1cnc(-c2ccccc2)nc1Nc1ccc(CC(=O)O)cc1 | 690 |
| NC(=O)c1cnc(-c2ccccc2)nc1Nc1ccc(CC(=O)NCC2CC2)cc1 | 18 |
| NC(=O)Cc1ccc(Nc2nc(-c3ccccc3)ncc2C(N)=O)cc1 | 74 |
| CC(C)CNC(=O)Cc1ccc(Nc2nc(-c3ccccc3)nc3c2C(=O)NCC3)cc1 | 0.21 |
| CS(=O)(=O)NC(=O)Cc1ccc(Nc2nc(-c3ccccc3)ncc2C(N)=O)cc1 | 4800 |
| O=C(O)Cc1ccc(Nc2nc(-c3ccccc3)nc3c2C(=O)NCC3)cc1 | 460 |
| O=C(Nc1c(Cl)cncc1Cl)c1ccc(OC(F)F)c(OCC2CC2)c1 [ROFLUMILAST] | 1.2 |

Continued, values first:

| IC50 [nM] | SMILES |
| --- | --- |
| 47 | CCCNC(=O)Cc1ccc(Nc2nc(-c3ccccc3)ncc2C(N)=O)cc1 |
| 840 | CC(C)(C)CNC(=O)Cc1ccc(Nc2nc(-c3ccc4[nH]ccc4c3)ncc2C(N)=O)cc1 |
| 43 | NC(=O)c1cnc(-c2ccccc2)nc1Nc1ccc(CC(=O)NO)cc1 |
| 3 | CC(C)(C)CNC(=O)Cc1ccc(Nc2nc(-c3ccccc3)ncc2C(N)=O)cc1 |
| 3.8 | CC(C)(C)CNC(=O)Cc1ccc(Nc2nc(N3CCCC3)ncc2C(N)=O)cc1 |
| 23 | CC(C)(C)CNC(=O)Cc1ccc(Nc2nc(-c3cccnc3)ncc2C(N)=O)cc1 |
| 7.1 | CN(C)c1ncc(C(N)=O)c(Nc2ccc(CC(=O)NCC(C)(C)C)cc2)n1 |
| 1000 | CC(C)(C)CNC(=O)Cc1ccc(Nc2nc(-c3ccoc3)ncc2C(N)=O)cc1 |
| 9.6 | C=C(C)c1ncc(C(N)=O)c(Nc2ccc(CC(=O)NCC(C)(C)C)cc2)n1 |
| 12 | CC(C)CNC(=O)Cc1ccc(Nc2nc(-c3ccccc3)ncc2C(N)=O)cc1 |
| 49 | CC(C)(C)NC(=O)Cc1ccc(Nc2nc(-c3ccccc3)ncc2C(N)=O)cc1 |

Target: T1, 3',5'-cyclic-AMP phosphodiesterase 4B
Test: Inhibition of recombinant human PDE4B using cAMP as substrate after 30 mins
Conditions: not given

| SMILES | IC50 [nM] |
| --- | --- |
| NC(=O)c1cnc(-c2ccccc2)nc1Nc1ccc(CC(=O)O)cc1 | 200 |
| NC(=O)c1cnc(-c2ccccc2)nc1Nc1ccc(CC(=O)NCC2CC2)cc1 | 16 |
| NC(=O)Cc1ccc(Nc2nc(-c3ccccc3)ncc2C(N)=O)cc1 | 120 |
| CC(C)CNC(=O)Cc1ccc(Nc2nc(-c3ccccc3)nc3c2C(=O)NCC3)cc1 | 7.3 |
| CS(=O)(=O)NC(=O)Cc1ccc(Nc2nc(-c3ccccc3)ncc2C(N)=O)cc1 | 490 |
| O=C(O)Cc1ccc(Nc2nc(-c3ccccc3)nc3c2C(=O)NCC3)cc1 | 47 |
| Cc1nc(-c2ccccc2)nc(Nc2ccc(CC(=O)O)cc2)c1C(N)=O | 4000 |
| CSc1nc(-c2ccccc2)nc(Nc2ccc(CC(=O)O)cc2)c1C(N)=O | 2000 |
| CNC(=O)c1cnc(-c2ccccc2)nc1Nc1ccc(CC(=O)O)cc1 | 8200 |

Results, then the compound that gave them:

| IC50 [nM] | SMILES |
| --- | --- |
| 120 | CCCNC(=O)Cc1ccc(Nc2nc(-c3ccccc3)ncc2C(N)=O)cc1 |
| 8.2 | CC(C)(C)CNC(=O)Cc1ccc(Nc2nc(-c3ccc4[nH]ccc4c3)ncc2C(N)=O)cc1 |
| 7.1 | NC(=O)c1cnc(-c2ccccc2)nc1Nc1ccc(CC(=O)NO)cc1 |
| 110 | CC(C)(C)CNC(=O)Cc1ccc(Nc2nc(-c3cncnc3)ncc2C(N)=O)cc1 |
| 6500 | CC(C)(C)CNC(=O)Cc1ccc(Nc2nc(NN3CCCCC3)ncc2C(N)=O)cc1 |
| 8.3 | CC(C)(C)CNC(=O)Cc1ccc(Nc2nc(-c3ccccc3)ncc2C(N)=O)cc1 |
| 13 | CC(C)(C)CNC(=O)Cc1ccc(Nc2nc(N3CCCC3)ncc2C(N)=O)cc1 |
| 29 | CC(C)(C)CNC(=O)Cc1ccc(Nc2nc(-c3cccnc3)ncc2C(N)=O)cc1 |
| 16 | CN(C)c1ncc(C(N)=O)c(Nc2ccc(CC(=O)NCC(C)(C)C)cc2)n1 |
| 11 | CC(C)(C)CNC(=O)Cc1ccc(Nc2nc(-c3ccoc3)ncc2C(N)=O)cc1 |
| 3.7 | C=C(C)c1ncc(C(N)=O)c(Nc2ccc(CC(=O)NCC(C)(C)C)cc2)n1 |
| 11 | CC(C)CNC(=O)Cc1ccc(Nc2nc(-c3ccccc3)ncc2C(N)=O)cc1 |
| 110 | CC(C)(C)NC(=O)Cc1ccc(Nc2nc(-c3ccccc3)ncc2C(N)=O)cc1 |

— ChEMBL document CHEMBL2439955, “Synthesis and biological evaluation of 5-carbamoyl-2-phenylpyrimidine derivatives as novel and potent PDE4 inhibitors” (Bioorg Med Chem, 2013)
